This note sets out measurements from ChEMBL document CHEMBL3044580, “Insecticide selectivity and behavioral response of the earwig Doru luteipes” (2011).

Values after ≈ are worked out from the molar mass of the structure shown. Active and inactive are the calls of the source. The rule behind the calls is not given here.

What is called LC50 is the concentration that kills 50% of the test population.

For assay [1], the system named is Doru. Description: Insecticidal activity against adult Doru luteipes earwigs) in compound treated maize leaf assessed as higher in number of stops in half-treated arenas measured during 10 min compound exposure by behavioral locomotory bioassay. The class given is functional, organism-based.
In assay [2] the test system is Spodoptera frugiperda. The experiment in a line: Relative toxicity in second instar Spodoptera frugiperda (fall armyworm) in compound treated maize leaf assessed as mortality measured by Time-mortality bioassay. Type of assay: functional.
For assay [3], the system named is Spodoptera frugiperda. The experiment in a line: Insecticidal activity in second instar Spodoptera frugiperda (fall armyworm) in compound treated maize leaf assessed as mortality measured by Time-mortality bioassay. The class given is functional.
The test system of assay [4] is Doru. Description: Insecticidal activity against adult Doru luteipes (earwigs) in compound treated maize leaf assessed as reduction in walking velocity in fully-treated arenas measured during 10 min compound exposure by behavioral locomotory bioassay. Type of assay: functional, organism-based.
Assay [5] concerns Doru. Description: Insecticidal activity against adult Doru luteipes (earwigs) in compound treated maize leaf assessed as mortality measured after 48 hr by concentration-mortality bioassay. Type of assay: functional.
The subject of assay [6] is Doru. Description: Relative toxicity in adult Doru luteipes (earwigs) in compound treated maize leaf assessed as mortality measured by time-mortality bioassay. Type of assay: functional.
In assay [7] the test system is Spodoptera frugiperda. The experiment in a line: Insecticidal activity in second instar Spodoptera frugiperda (fall armyworm) in compound treated maize leaf assessed as mortality measured after 48 hr by concentration-mortality bioassay. Type of assay: functional.
Assay [8] has as its system Spodoptera frugiperda. The experiment in a line: Relative toxicity in second instar Spodoptera frugiperda (fall armyworm) in compound treated maize leaf assessed as mortality measured after 48 hr by concentration-mortality bioassay. Type of assay: functional.
The test system of assay [9] is Doru. The experiment in a line: Insecticidal activity against adult Doru luteipes earwig ) in compound treated maize leaf assessed as higher resting time in half-treated arenas measured during 10 min compound exposure by behavioral locomotory bioassay. The class given is functional, organism-based.
Assay [10] has as its system Doru. Description: Relative toxicity in adult Doru luteipes (earwigs) in compound treated maize leaf assessed as mortality measured after 48 hr by concentration-mortality bioassay. Type of assay: functional.
The nature of assay [11]: Selectivity ratio of LC50 for adult earwig species Doru luteipes to LC50 for second instar fall armyworm Spodoptera frugiperda by concentration-mortality bioassay. Type of assay: functional.
Assay [12] deals with Doru. The experiment in a line: Insecticidal activity against adult Doru luteipes (earwigs) in compound treated maize leaf assessed as reduction in distance walked in fully-treated arenas measured during 10 min compound exposure by behavioral locomotory bioassay. Type of assay: functional, organism-based.
The subject of assay [13] is Doru. Description: Insecticidal activity against adult Doru luteipes (earwigs) in compound treated maize leaf assessed as mortality measured by time-mortality bioassay. Type of assay: functional.
The subject of assay [14] is Doru. The experiment in a line: Insecticidal activity against adult Doru luteipes (earwigs) in compound treated maize leaf assessed as insect avoidance by behavioral bioassay. Type of assay: functional, organism-based.

In the case of `CC[C@H]1CCC[C@H](O[C@H]2CC[C@H](N(C)C)[C@@H](C)O2)[C@@H](C)C(=O)C2=C[C@@H]3[C@@H](C=C(C)[C@@H]4C[C@@H](O[C@@H]5O[C@@H](C)[C@H](OC)[C@@H](OC)[C@H]5OC)C[C@@H]34)[C@@H]2CC(=O)O1.CC[C@H]1CCC[C@H](O[C@H]2CC[C@H](N(C)C)[C@@H](C)O2)[C@@H](C)C(=O)C2=C[C@@H]3[C@@H](C=C[C@@H]4C[C@@H](O[C@@H]5O[C@@H](C)[C@H](OC)[C@@H](OC)[C@H]5OC)C[C@@H]34)[C@@H]2CC(=O)O1`, the inhibition result in the assay with Doru [1], in the assay with Doru [4], in the assay with Doru [9] and in the assay on Doru [12] was “Active” throughout. In addition, the Ratio worked out at 2.77 with Spodoptera frugiperda [2], 6.61 in the assay on Doru [6], 99.47 in the assay on Spodoptera frugiperda [8] and 3528 in the assay on Doru [10]. Besides, the LT50 with Spodoptera frugiperda [3] was found to be 47.17 min; in the assay with Doru [13], 11.43 h. The values for the 50% lethal concentration (LC50) with Doru [5] and in the assay with Spodoptera frugiperda [7] were 215 µg/mL and 0.04 µg/mL, respectively. Besides, the RatioLC50 in assay [11] is 3530.
On to `CCOP(=S)(OCC)Oc1nc(Cl)c(Cl)cc1Cl` [CHLORPYRIFOS], for which the Ratio was found to be 1.26 with Spodoptera frugiperda [2], 1 in the assay on Doru [6], 3.57 in the assay on Spodoptera frugiperda [8] and 550000 in the assay on Doru [10]. Also, the LT50 worked out at 21.52 min in the assay with Spodoptera frugiperda [3] and 1.73 h in the assay on Doru [13]. Also, the LC50 is 1.4 µg/mL (≈ 3.99 µM) in the assay with Doru [5] and 1.18 µg/mL (≈ 3.37 µM) with Spodoptera frugiperda [7]. The RatioLC50 in assay [11] amounted to 1.2. In addition, in the assay on Doru [14], the inhibition entry was “Active”.
Consider `CCOc1ccc(C(C)(C)COCc2cccc(Oc3ccccc3)c2)cc1` [ETOFENPROX], for which the Ratio in the assay with Spodoptera frugiperda [2] is 1; with Spodoptera frugiperda [8] it was 1.25; with Doru [10] it was 1133.5. Further, the LT50 with Spodoptera frugiperda [3] is on record as 17.03 min. In addition, the LC50 came out at 668 µg/mL (≈ 1770 µM) with Doru [5] and 3.37 µg/mL (≈ 8.95 µM) with Spodoptera frugiperda [7]. Besides, the RatioLC50 in [11] worked out at 198. Further, the inhibition entry in the assay on Doru [14] was “Active”.
Regarding `CNC(=O)c1cc(Cl)cc(C)c1NC(=O)c1cc(Br)nn1-c1ncccc1Cl` [CHLORANTRANILIPROLE], the Ratio in the assay on Spodoptera frugiperda [2] is reported as 4.97; with Spodoptera frugiperda [8], 5.46; in the assay on Doru [10], 1. The LT50 in the assay on Spodoptera frugiperda [3] stood at 84.61 min. In addition, in the assay with Spodoptera frugiperda [7], the median lethal concentration (LC50) is 0.77 µg/mL (≈ 1.59 µM). For the same molecule, the RatioLC50 in assay [11] came out at 980000.
As to `CC1(C)[C@H](/C=C(\Cl)C(F)(F)F)[C@@H]1C(=O)O[C@@H](C#N)c1cccc(Oc2ccccc2)c1` (relative stereo) [REL-LAMBDA CYHALOTHRIN], the Ratio with Spodoptera frugiperda [2] is given as 1.47; with Doru [6], 1.23; in the assay with Spodoptera frugiperda [8], 6; in the assay with Doru [10], 45000. The LT50 in the assay with Spodoptera frugiperda [3] stood at 25.03 min; in the assay with Doru [13], 2.12 h. Besides, the LC50 turned out to be 16.6 µg/mL (≈ 36.9 µM) in the assay on Doru [5] and 0.7 µg/mL (≈ 1.56 µM) with Spodoptera frugiperda [7]. In addition, the RatioLC50 in assay [11] is 23.7.
For `CC1(C)[C@H](C(=O)O[C@H](C#N)c2cccc(Oc3ccccc3)c2)[C@@H]1C=C(Br)Br` [DELTAMETHRIN], the Ratio is 2.63 with Spodoptera frugiperda [2], 23.2 in the assay on Spodoptera frugiperda [8] and 33000 with Doru [10]. Also, the LT50 in the assay with Spodoptera frugiperda [3] came to 44.84 min. For the same molecule, the LC50 with Doru [5] is 22.6 µg/mL (≈ 44.7 µM); with Spodoptera frugiperda [7], 0.18 µg/mL (≈ 0.356 µM). Further, in [11], the RatioLC50 was found to be 152.
Consider `CCOCn1c(-c2ccc(Cl)cc2)c(C#N)c(Br)c1C(F)(F)F` [CHLORFENAPYR], for which the Ratio with Spodoptera frugiperda [2] was 6.83; with Doru [6] it was 12.48; with Spodoptera frugiperda [8], 1.78; in the assay with Doru [10], 14000. Further, the results for the LT50 in the assay on Spodoptera frugiperda [3] and in the assay with Doru [13] were 116.34 min and 21.58 h, respectively. Also, the median lethal concentration (LC50) with Doru [5] came to 53.3 µg/mL (≈ 131 µM); with Spodoptera frugiperda [7], 2.37 µg/mL (≈ 5.81 µM). The RatioLC50 in assay [11] was 22.5. In the assay with Doru [14], the inhibition entry is “Active”.
As for `CNC(=O)ON=C(C)SC` [METHOMYL], the Ratio in the assay on Spodoptera frugiperda [2] was 1.71; in the assay on Spodoptera frugiperda [8], 1; in the assay with Doru [10], 348. In addition, the LT50 with Spodoptera frugiperda [3] is listed as 29.18 min. The results for the 50% lethal concentration (LC50) in the assay on Doru [5] and with Spodoptera frugiperda [7] were 2180 µg/mL (≈ 13400 µM) and 4.21 µg/mL (≈ 26 µM), respectively. Also, the RatioLC50 in assay [11] stood at 517.
